We go through 35 molecules from patent publication US20250353841A1 (BIOGEN MA INC., priority 2022, published 2025).

What is called IC50 is the concentration that gives 50% inhibition.

The test system of this assay is mutant Huntington (HTT) protein. Kind of assay: HTT Mutant HTRF iPSC assay (mHTT protein lowering). It is filed as cell-based. As to conditions: human iPSC derived from a HTT patient with a poly-Q49 mutation. Background: TR-FRET usually uses a lanthanide donor and a delayed reading to cut background.

Structures are written as SMILES.

Regarding `Cc1cn2nc(-c3cc(F)c4nn([C@H]5[C@@H]6CN(CC7CC7)C[C@@H]65)cc4c3)cc(C)c2n1` [Compound 367, 6-[2-[(1R,5S)-3-(cyclopropylmethyl)-3-azabicyclo[3.1.0]hexan-6-yl]-7-fluoro-indazol-5-yl]-2,8-dimethyl-imidazo[1,2-b]pyridazine], the IC50 lay within 100 to 1000 nM.

In the case of `CNC1CCC(n2cc3cc(-c4cc(C)c5nc(C)cn5n4)cc(F)c3n2)CC1` (centres unmarked) [Compound 368, 4-(5-(2,8-dimethylimidazo[1,2-b]pyridazin-6-yl)-7-fluoro-2H-indazol-2-yl)-N-methylcyclohexan-1-amine], the IC50 lay in the range of 100 to 1000 nM.

In the case of `Cc1cn2cc(-c3cc(F)c4nn(C5CCNCC5)cc4c3)cc2c(C)n1` [Compound 369, 5-(1,3-dimethylpyrrolo[1,2-a]pyrazin-7-yl)-7-fluoro-2-(piperidin-4-yl)-2H-indazole], the IC50 was less than 100 nM.

`Cc1cn2nc(-c3cc(F)c4nn(C5CCN(C)CC5)cc4c3)cc2c(C)n1` [Compound 371, 2-(7-fluoro-2-(1-methylpiperidin-4-yl)-2H-indazol-5-yl)-4,6-dimethylpyrazolo[1,5-a]pyrazine] gave an IC50 of 100 to 1000 nM.

In the case of `Cc1cn2nc(-c3cc(F)c4nn(C5CCN(CC6CC6)CC5)cc4c3)cc2c(C)n1` [Compound 372, 2-(2-(1-(cyclopropylmethyl)piperidin-4-yl)-7-fluoro-2H-indazol-5-yl)-4,6-dimethylpyrazolo[1,5-a]pyrazine], the IC50 is less than 100 nM.

Molecule `COCCN1CCC(n2cc3cc(-c4cc(C(F)(F)F)c5nc(C)cn5n4)cc(F)c3n2)CC1` [Compound 373, 6-(7-fluoro-2-(1-(2-methoxyethyl)piperidin-4-yl)-2H-indazol-5-yl)-2-methyl-8-(trifluoromethyl)imidazo [1,2-b]pyridazine] displayed an IC50 of less than 100 nM.

`Cc1cn2nc(-c3cc(F)c4nn(C5CCNCC5)nc4c3)cc(C(F)F)c2n1` [Compound 374, 6-[8-(difluoromethyl)-2-methyl-imidazo[1,2-b]pyridazin-6-yl]-4-fluoro-2-(4-piperidyl)benzotriazole] yielded an IC50 of less than 100 nM.

Molecule `Cc1cn2nc(-c3cc(F)c4nn(C5CCN(C)CC5)nc4c3)cc(C(F)F)c2n1` [Compound 375, 6-[8-(difluoromethyl)-2-methyl-imidazo[1,2-b]pyridazin-6-yl]-4-fluoro-2-(1-methyl-4-piperidyl)benzotriazole] showed an IC50 of 100 to 1000 nM.

For the molecule `CCN1CCC(n2nc3cc(-c4cc(C)c5nc(C)cn5n4)cc(F)c3n2)CC1` [Compound 376, 6-(2,8-dimethylimidazo[1,2-b]pyridazin-6-yl)-2-(1-ethyl-4-piperidyl)-4-fluoro-benzotriazole], the IC50 lay within 100 to 1000 nM.

On to `CCN1CCC(n2nc3cc(-c4cc(C(F)F)c5nc(C)cn5n4)cc(F)c3n2)CC1` [Compound 377, 6-(8-(difluoromethyl)-2-methylimidazo[1,2-b]pyridazin-6-yl)-2-(1-ethylpiperidin-4-yl)-4-fluoro-2H-benzo[d][1,2,3]triazole], for which the IC50 was 100 to 1000 nM.

`Cc1cn2cc(-c3cc(F)c4nn(C5CCNCC5)nc4c3)cc2c(C)n1` [Compound 378, 6-(1,3-dimethylpyrrolo[1,2-a]pyrazin-7-yl)-4-fluoro-2-(piperidin-4-yl)-2H-benzo[d][1,2,3]triazole] registered an IC50 of 100 to 1000 nM.

The molecule `CCc1nc(C)cn2cc(-c3cc(F)c4nn(C5CCNCC5)nc4c3)cc12` [Compound 379, 6-(1-ethyl-3-methylpyrrolo[1,2-a]pyrazin-7-yl)-4-fluoro-2-(piperidin-4-yl)-2H-benzo[d][1,2,3]triazole] displayed an IC50 of 100 to 1000 nM.

The molecule `Cc1cn2nc(-c3cc(F)c4nn(C5CCN(C)CC5)nc4c3)cc(C)c2n1` [Compound 380, 6-(2,8-dimethylimidazo[1,2-b]pyridazin-6-yl)-4-fluoro-2-(1-methyl-4-piperidyl)benzotriazole] came in with an IC50 of 100 to 1000 nM.

With `Cc1cc(-c2cc(F)c3nn(C4CCNCC4)nc3c2)nc2cn(C)nc12` [Compound 381, 6-(2,7-dimethyl-2H-pyrazolo[4,3-b]pyridin-5-yl)-4-fluoro-2-(piperidin-4-yl)-2H-benzo[d][1,2,3]triazole], the IC50 lay in the range of 100 to 1000 nM.

`Cn1cc2cc(-c3cc(F)c4nn(C5CCNCC5)nc4c3)cc(C(F)F)c2n1` [Compound 382, 6-(7-(difluoromethyl)-2-methyl-2H-indazol-5-yl)-4-fluoro-2-(piperidin-4-yl)-2H-benzo[d][1,2,3]triazole]: the IC50 was in the range of 100 to 1000 nM.

The molecule `Cc1cn2nc(-c3cc(F)c4nn(CC5CNC5)nc4c3)cc(C)c2n1` [Compound 383, 2-(azetidin-3-ylmethyl)-6-(2,8-dimethylimidazo[1,2-b]pyridazin-6-yl)-4-fluoro-2H-benzo[d][1,2,3]triazole] showed an IC50 of 100 to 1000 nM.

Take `Cc1cn2nc(-c3cc(F)c4nn(C5CCNCC5)nc4c3)ccc2n1` [Compound 384, 4-fluoro-6-(2-methylimidazo[1,2-b]pyridazin-6-yl)-2-(piperidin-4-yl)-2H-benzo[d][1,2,3]triazole]: the IC50 fell in the range of 100 to 1000 nM.

Take `Cc1cn2nc(-c3cc(F)c4nn(C5CC6(CNC6)C5)nc4c3)cc(C)c2n1` [Compound 385, 6-(2,8-dimethylimidazo[1,2-b]pyridazin-6-yl)-4-fluoro-2-(2-azaspiro[3.3]heptan-6-yl)-2H-benzo[d][1,2,3]triazole]: the IC50 lay in the range of 100 to 1000 nM.

Turning to `Cc1cn2nc(-c3cc(F)c4nn(CC5CCNC5)nc4c3)cc(C)c2n1` (centres unmarked) [Compound 386, 6-(2,8-dimethylimidazo[1,2-b]pyridazin-6-yl)-4-fluoro-2-(pyrrolidin-3-ylmethyl)-2H-benzo[d][1,2,3]triazole], the IC50 is less than 100 nM.

Regarding `Cc1cn2nc(-c3cc(F)c4nn(C5CCNCC5)nc4c3)cc(C3CC3)c2n1` [Compound 387, 6-(8-cyclopropyl-2-methylimidazo[1,2-b]pyridazin-6-yl)-4-fluoro-2-(piperidin-4-yl)-2H-benzo[d][1,2,3]triazole], the IC50 was in the range of 100 to 1000 nM.

With `Cc1cn2nc(-c3cc(F)c4nn(C5CCNCC5)nc4c3)cc2c(C)n1` [Compound 388, 6-(4,6-dimethylpyrazolo[1,5-a]pyrazin-2-yl)-4-fluoro-2-(piperidin-4-yl)-2H-benzo[d][1,2,3]triazole], the IC50 was 100 to 1000 nM.

For the molecule `CCc1cc(-c2cc(F)c3nn(C4CCNCC4)nc3c2)nn2cc(C)nc12` [Compound 389, 6-(8-ethyl-2-methylimidazo[1,2-b]pyridazin-6-yl)-4-fluoro-2-(piperidin-4-yl)-2H-benzo[d][1,2,3]triazole], the IC50 fell in the range of 100 to 1000 nM.

For the molecule `Cc1nc2c(C)cc(-c3cc(F)c4nn(C5CCNCC5)nc4c3)nn2n1` [Compound 390, 6-(7-fluoro-2-(piperidin-4-yl)-2H-benzo[d][1,2,3]triazol-5-yl)-2,8-dimethyl-[1,2,4]triazolo[1,5-b]pyridazine], the IC50 fell in the range of 100 to 1000 nM.

The molecule `Cc1nc2c(C(F)(F)F)cc(-c3cc(F)c4nn(C5CCNCC5)nc4c3)nn2n1` [Compound 391, 6-(7-fluoro-2-(piperidin-4-yl)-2H-benzo[d][1,2,3]triazol-5-yl)-2-methyl-8-(trifluoromethyl)-[1,2,4]triazolo[1,5-b]pyridazine] came in with an IC50 of less than 100 nM.

On to `COc1cc(-c2cc(F)c3nn(C4CCNCC4)nc3c2)nn2nc(C)nc12` [Compound 392, 6-(7-fluoro-2-(piperidin-4-yl)-2H-benzo[d][1,2,3]triazol-5-yl)-8-methoxy-2-methyl-[1,2,4]triazolo[1,5-b]pyridazine], for which the IC50 is 100 to 1000 nM.

Turning to `Cc1cn2nc(-c3cc(F)c4nn(C5CC6(CCNCC6)C5)nc4c3)cc(C)c2n1` [Compound 395, 6-(2,8-dimethylimidazo[1,2-b]pyridazin-6-yl)-4-fluoro-2-(7-azaspiro[3.5]nonan-2-yl)-2H-benzo[d][1,2,3]triazole], the IC50 is less than 100 nM.

The molecule `Cc1cn2nc(-c3cc(F)c4nn(C5CCC6(CCNC6)C5)nc4c3)cc(C)c2n1` (centres unmarked) [Compound 396, 6-(2,8-dimethylimidazo[1,2-b]pyridazin-6-yl)-4-fluoro-2-(2-azaspiro[4.4]nonan-7-yl)-2H-benzo[d][1,2,3]triazole] displayed an IC50 of 100 to 1000 nM.

Take `Cc1cn2nc(-c3cc(F)c4nn(C5CC6(CCNC6)C5)nc4c3)cc(C)c2n1` (centres unmarked) [Compound 398, 6-(2,8-dimethylimidazo[1,2-b]pyridazin-6-yl)-4-fluoro-2-(6-azaspiro[3.4]octan-2-yl)-2H-benzo[d][1,2,3]triazole]: the IC50 was less than 100 nM.

`COCCN1CCC(c2nc3cc(-c4cc(C)c5nc(C)cn5n4)cc(F)c3[nH]2)CC1` [Compound 417, 6-(7-fluoro-2-(1-(2-methoxyethyl)piperidin-4-yl)-1H-benzo[d]imidazol-5-yl)-2,8-dimethylimidazo[1,2-b]pyridazine] gave an IC50 of 100 to 1000 nM.

As for `Cc1cn2nc(-c3cc(F)c4[nH]c(C5CCNC(C)C5)nc4c3)cc(C)c2n1` (centres unmarked) [Compound 418, 6-(7-fluoro-2-(2-methylpiperidin-4-yl)-1H-benzo[d]imidazol-5-yl)-2,8-dimethylimidazo[1,2-b]pyridazine], the IC50 lay in the range of 100 to 1000 nM.

With `Cc1cn2nc(-c3cc(F)c4[nH]c(C5CCNC(C)(C)C5)nc4c3)cc(C)c2n1` (centres unmarked) [Compound 419], the IC50 lay in the range of 100 to 1000 nM.

`Cc1cn2nc(-c3cc(F)c4[nH]c(C5CC6(CCNC6)C5)nc4c3)cc(C)c2n1` (centres unmarked) [Compound 420, 6-(7-fluoro-2-(6-azaspiro[3.4]octan-2-yl)-1H-benzo[d]imidazol-5-yl)-2,8-dimethylimidazo[1,2-b]pyridazine] displayed an IC50 of 100 to 1000 nM.

Turning to `Cc1cn2nc(-c3cc(F)c4[nH]c(C5CC6(CCNCC6)C5)nc4c3)cc(C)c2n1` [Compound 421, 6-(7-fluoro-2-(7-azaspiro[3.5]nonan-2-yl)-1H-benzo[d]imidazol-5-yl)-2,8-dimethylimidazo[1,2-b]pyridazine], the IC50 lay within 100 to 1000 nM.

Molecule `Cc1cn2nc(-c3cc(F)c4[nH]c(C5CCN(CC6CC6)CC5)nc4c3)cc(C)c2n1` [Compound 422, 6-(2-(1-(cyclopropylmethyl)piperidin-4-yl)-7-fluoro-1H-benzo[d]imidazol-5-yl)-2,8-dimethylimidazo[1,2-b]pyridazine] returned an IC50 of less than 100 nM.

For the molecule `Cc1cn2nc(-c3cc(F)c4[nH]c(C5CC6CC(N)C6C5)nc4c3)cc(C)c2n1` (centres unmarked) [Compound 423, 3-(5-(2,8-dimethylimidazo[1,2-b]pyridazin-6-yl)-7-fluoro-1H-benzo[d]imidazol-2-yl)bicyclo[3.2.0]heptan-6-amine], the IC50 lay within 100 to 1000 nM.
